Results published in PMC11645189 (ACS infectious diseases, 2024).

Experiments:
P. falciparum D6 = details: read-out: asexual blood-stage vs. P. falciparum D6 IC50; cited from earlier work
P. yoelii = assay: in vivo blood-stage efficacy in the P. yoelii mouse model; parameters: species or system Plasmodium yoelii
[1] = system: P. falciparum stage V gametocytes; assay: gametocytocidal assay using late-stage gametocytes; type: cell-based; details: Plasmodium falciparum, read-out: sexual blood-stage vs. P. falciparum stage V gametocytes IC50

For O=C1C(O)=C([C@H]2CC[C@H](c3ccc(Cl)cc3)CC2)C(=O)c2ccccc21 [ATQ, Atovaquone], the IC50 (P. falciparum D6) is given as 0.1 nM.
For CCN(CC)CCCC(C)Nc1ccnc2cc(Cl)ccc12 (stereo not shown) [CQ, chloroquine], the “in vivo %parasitemia reduction vs. controls on day 5” value (P. yoelii; 25 mg/kg/4d oral) was 100% and the “in vivo %parasitemia reduction vs. controls on day 5” value (P. yoelii; 50 mg/kg/4d oral) was 100%.
CN(C)c1ccc2nc3ccc(=[N+](C)C)cc-3sc2c1 [methylene blue] gave an IC50 [1] of 143 nM.
